Assay results reported in patent US5462941A, “3,6-disubstituted pyradazine derivatives” (Mitsubishi Chemical Corporation, priority 1991, dated 1995).

Legend:
[1] = tested on: Platelet Agglutination of Rats; assay: Inhibitory effect on collagen-induced platelet agglutination of rats in vitro (platelet rich plasma); format: cell-based; conditions: rat platelet rich plasma, read-out: in vitro Inhibitory ratio (platelet agglutination); for inhibition at 0.1 µM: 10^-7 M; for inhibition at 0.3 µM: 3 × 10^-7 M; for inhibition at 1 µM: 10^-6 M
Description: Inhibitory Effects of 3,6-Disubstituted Pyridazine Derivatives on Platelet Agglutination of Rats […]
Arterial blood of a rat was centrifuged to obtain platelet rich plasma. […] of a medicinal solution was added to 250 μl of the platelet rich plasma, and the mixture was incubated for 2 minutes. Thereafter, 3 μg of collagen (produced by Hormon-Chemie) was added to the mixture as a platelet agglutination inducer, and changes in the platelet agglutination were observed and recorded by a 2-channel platelet agglutination degree measuring instrument (Model DP247E, produced by Sienco) for 10 minutes.
(§1) The platelet agglutination inhibitory ratio was calculated from the following formula:
Inhibitory ratio=(Tc-Ts)/Tc×100
Tc: Agglutination degree when only a solvent was added
Ts: Agglutination degree when a medicinal solution was added

[2] = tested on: Platelet Agglutination of Rats; assay: Inhibitory effect on collagen-induced platelet agglutination of rats after oral administration (ex vivo); format: in vivo, rat (male Wistar-ST); conditions: 1 mg/kg p.o., blood collected one hour after; collagen 7 to 10 μg/ml; rat
Description: Inhibitory Effects of 3,6-Disubstituted Pyridazine Derivatives on Platelet Agglutination of Rats In Vivo (Oral Administration)
A rat group consisting of 8 male Wistar-ST rats each weighing about 250 g was tested. Each compound was suspended in aqueous 1% tragacanth solution. The thus-prepared suspension was orally administered to each rat at a dose of 4 ml/kg. One hour after, blood was collected from each carotid artery through a cannula into a plastic test tube containing 3.8% sodium citrate in amount corresponding to 1/10 of the volume of the test tube) and the mixture was stirred. Thereafter, the mixture was centrifuged at 200×g rpm for 15 minutes, and the supernatant liquid was taken as platelet rich plasma (PRP). The residue was further centrifuged at 2000×g rpm for 15 minutes, and the supernatant liquid was collected as platelet poor plasma (PPP) and used for measurement of the platelet agglutinating ability. The platelet agglutinating ability was measured by a 2-channel platelet agglutination degree measuring instrument (Model DP247E, produced by Sienco), and recorded by a 2-pen recorder.
Collagen (produced by Hormon-Chemie) having a concentration of 7 to 10 μg/ml was used as a platelet agglutination inducer.
as §1
Inhibitory ratio=(A-B)/A×100 (%)
A: Agglutination degree in the group (controlled group) to which only a solution of 1% tragacanth was administered
B: Agglutination degree in the group to which the tragacanth solution containing a compound was administered

[3] = tested on: Myocardial Infarction of a Rat; assay: Effect on myocardial infarction of a rat induced by ligation of the left coronary artery; format: in vivo, rat (male SD); conditions: oral, 60 minutes before ligation
Description: Effects of 3,6-Disubstituted Pyridazine Derivatives on the Myocardial Infarction of a Rat Induced by the Ligation of the Left Coronary Artery
A rat group consisting of 8 male SD rats each weighing 200 to 250 g was tested. Myocardial infarction was produced in accordance with a method of Selye et al. That is, each rat was fixed on an operating boar on its back, and an about 1.5 cm incision had been made through the skin along the left sternal border under weak etherization. The pericardium was broken to exteriorize the heart, and the left coronary artery was ligated at a position of 1 to 2 mm apart from the origin thereof with black blade 4-O silk suture (produced by Hama Ika Kogyo). Thereafter, the heart was restored to its original position and the chest was sutured. The air in the throacic cavity was discharged by pressing both side breast portions. After the resumption of respiration, the ST elevation in the standard limb lead II by an electrocardiograph (Model ECG-6601, produced by Nihon Koden Co.,). 24 hours after the ligation, blood was collected from the aortas at the abdomen. A fatal amount of blood was then drawn from each rat. The heart was taken out, and a tissue slice (about 2 mm thick) having an annular cross section was cut from the central portion of the heart. The tissue slice was incubated in 20 ml of 1% TTC (tryphenyl tetrazolium chloride, produced by Wako Pure Chemical Industries Limited) dissolved in 0.09M of phosphoric acid buffer (pH 8.6) at 37° C. for 20 minutes while shielding light. The tissue slice was photographed by a stereoscopic microscope to produce a color slide. The image of the tissue slice was projected on a wall surface from the color slide. The cut surface, the infarcted portion (portion not dyed with TTC) and the non-infarcted portion (portion dyed with TTC) were traced on a sheet, and the area of the infarcted portion in the whole cross section was calculated. The medicine was suspended in an aqueous 1% tragacanth solution and orally administered to each rat 60 minutes before the ligation of the left coronary artery.
The myocardial infarction inhibitory ratio was calculated from the following formula: [formula] A: Infarction degree in the group (controlled group) to which only a solution of 1% tragacanth was administered
B: Infarction degree in the group to which the tragacanth solution containing a medicine was administered

SMILES | inhibition at 0.1 µM [1] | inhibition at 0.3 µM [1] | inhibition at 1 µM [1] | further results
C[C@@H](Nc1nnc(-c2ccccc2)c2ccsc12)c1ccccc1 [Example 82] | 93.3% |  |  | ex vivo Inhibitory ratio (platelet agglutination) [2]: 37.9%
C[C@H](Nc1nnc(-c2ccccc2)c2ccsc12)c1ccccc1 [Example 83] |  | 94.3% |  | 
C[C@@H](Nc1nnc(-c2ccsc2)c2ccccc12)c1ccccc1 [Example 39, (R)-1-(α-phenylethylamino)-4-(3-thienyl) phthalazine] | 94.9% |  |  | 
C[C@@H](Nc1nnc(C2CCCCC2)c2ccccc12)c1ccccc1 [Example 1, (R)-1-(α-phenylethylamino)-4-cyclohexylphthalazine] | 89.2% | 97.1% |  | 
CC1(C)CC(Nc2nnc(C3CCCCC3)c3ccccc23)CC(C)(C)C1 [Example 5] |  |  | 51.8% | 
CCC(Nc1nnc(-c2ccccc2)c2sccc12)c1ccccc1 (centres unmarked) [Example 71] | 30.7% | 98.6% |  | 
Cc1cccc(C(C)Nc2nnc(-c3ccccc3)c3sccc23)c1 (centres unmarked) [Example 73] | 42.8% | 95.6% |  | 
C[C@@H](Nc1nnc(-c2ccccc2)c2occc12)C1CCCCC1 [Example 95, (R)-4-(1-cyclohexylethylamino)-7-phenyl-furano[2,3-d]pyridazine] | 94.4% | 100% |  | ex vivo Inhibitory ratio (platelet agglutination) [2]: 63.1%
C[C@@H](Nc1nnc(-c2ccccc2)c2sccc12)C1CCCCC1 [Example 75] | 94.5% |  |  | ex vivo Inhibitory ratio (platelet agglutination) [2]: 50.2%
Clc1ccccc1CN1CCc2sccc2C1 [Ticlopidine, reference compound] |  |  |  | percentage of inhibition (myocardial infarction) ([3]; 30 mg/kg): 10.1 percentage
COc1ccccc1C(C)Nc1nnc(-c2ccccc2)c2sccc12 (centres unmarked) [Example 74] | 73.4% | 93.5% |  | 
CCCCC(Nc1nnc(-c2ccccc2)c2ccsc12)c1ccccc1 (centres unmarked) [Example 85] |  |  | 40.7% | 
Cc1ccccc1-c1nnc(N[C@H](C)c2ccccc2)c2ccsc12 [Example 79] |  | 6.6% | 94.3% | 
c1ccc(-c2nnc(NC3CCCCC3)c3ccsc23)cc1 [Example 80] | 100% |  |  | 
c1coc(-c2nnc(-n3ccnc3)c3ccccc23)c1 [Example 46, 1-(1-imidazolyl)-4-(2-furyl)phthalazine] |  | 40.6% | 66.5% | 
C[C@@H](Nc1nnc(-c2ccco2)c2ccccc12)C1CCCCC1 [Example 45, (R)-1-(α-cyclohexylethylamino)-4-(2-furyl)phthalazine] | 98.6% |  |  | 
C[C@@H](Nc1nnc(-c2cccs2)c2sccc12)c1ccccc1 [Example 69, (R)-4-(1-phenylethylamino)-7-(2-thienyl) thieno[2 3-d]pyridazine] | 50.8% | 95.2% |  | 
C[C@@H](Nc1nnc(-c2ccccc2)c2sccc12)c1ccccc1 [Example 70] | 95.2% |  |  | 
COc1ccccc1C(C)Nc1nnc(-c2ccccc2)c2ccsc12 (centres unmarked) [Example 89] |  | 49.5% | 95.4% | 
CCC(Nc1nnc(-c2ccccc2)c2ccsc12)c1ccccc1 (centres unmarked) [Example 84] |  | 24.5% | 61.6% | 
Cc1csc(-c2nnc(N[C@H](C)c3ccccc3)c3ccccc23)c1 [Example 42, (R)-1-(α-phenylethylamino)-4-(4-methyl-2-thienyl)phthalazine] | 96.3% |  |  | 
c1ccc2c(C3CCCCC3)nnc(NC3CCCCC3)c2c1 [Example 3] |  | 18.4% | 100% | 
Cc1cccc(C(C)Nc2nnc(-c3ccccc3)c3ccsc23)c1 (centres unmarked) [Example 87] |  |  | 18% | 
C[C@H](Nc1nnc(-c2ccccc2)c2ccccc12)C1CCCCC1 [Example 61] | 30.2% | 94.4% |  | 
CC(Nc1nnc(-c2ccccc2)c2sccc12)c1ccccc1Cl (centres unmarked) [Example 72] | 5.1% | 95.3% |  | 
CCC(Nc1nnc(C2CCCCC2)c2ccccc12)c1ccccc1 (centres unmarked) [Example 2] | 56% | 96% |  | 
CC(Nc1nnc(-c2ccccc2)c2ccsc12)c1ccccc1Cl (centres unmarked) [Example 86] |  | 78.2% | 90.2% | 
C[C@@H](Nc1nnc(-c2ccccc2)c2ccccc12)C1CCCCC1 [Example 60, (R)-1-(1-cyclohexylethylamino)-4-phenylphthalazine] | 94.3% |  |  | ex vivo Inhibitory ratio (platelet agglutination) [2]: 51.3%; percentage of inhibition (myocardial infarction) ([3]; 1 mg/kg): 68.5 percentage; percentage of inhibition (myocardial infarction) ([3]; 3 mg/kg): 82.2 percentage
CC(=O)Oc1ccccc1C(=O)O [Aspirin, reference compound] |  |  |  | percentage of inhibition (myocardial infarction) ([3]; 100 mg/kg): 10.7 percentage
C[C@@H](Nc1nnc(-c2ccccc2)c2ccsc12)C1CCCCC1 [Example 90] | 32.7% | 94.4% |  | ex vivo Inhibitory ratio (platelet agglutination) [2]: 60.6%
